Laboratory results taken from article PMC5107132 (European journal of pharmacology, 2016).
Marks after values point to notes of the source that are not given here.

Assays:
[1] = tested on: 50 other receptor and enzyme assays; assay: NIMH PDSP screen, 50 other receptor and enzyme assays
[2] = target: α3β3γ2 GABAA receptors (Rattus norvegicus, UniProt P18508+P20236); assay: Two-electrode voltage clamp in Xenopus oocytes, α3β3γ2; format: cell-based
[3] = tested on: Wistar rats; assay: Rotarod test; format: in vivo, rat
[4] = Pharmacokinetic study, plasma and brain concentrations after i.p. injection
[5] = target: α5β3γ2S GABAA receptors (Rattus norvegicus, UniProt P18508+P19969); assay: 3H-flunitrazepam competition binding, α5β3γ2S
[6] = tested on: Wistar rats; assay: Grip strength; format: in vivo, rat; conditions: for Grip strength, peak force of experimenter's pull necessary to overcome the animal's grip: 20 min before testing
[7] = tested on: Wistar rats; assay: Amphetamine induced locomotor activity; format: in vivo, rat; conditions: 1, 2.5 and 10 mg/kg i.p.
[8] = target: α2β3γ2 GABAA receptors (Rattus norvegicus, UniProt P18508+P23576); assay: Two-electrode voltage clamp in Xenopus oocytes, α2β3γ2; format: cell-based
[9] = target: α5β3γ2 GABAA receptors (Rattus norvegicus, UniProt P18508+P19969); assay: Two-electrode voltage clamp in Xenopus oocytes, α5β3γ2; format: cell-based; conditions: concentrations approaching 100 nM; GABA EC3-5
[10] = target: α1β3γ2S GABAA receptors (Rattus norvegicus, UniProt P18508+P62813); assay: 3H-flunitrazepam competition binding, α1β3γ2S
[11] = tested on: Wistar rats; assay: Intravenous pentylenetetrazole infusion test; format: in vivo, rat
[12] = In vitro hydrolytic stability study in rat plasma; format: in vitro ADME; conditions: for Total plasma concentration (in vitro metabolic stability): rat plasma 37 °C
[13] = tested on: non-α5GABAARs; assay: Two-electrode voltage clamp in Xenopus oocytes, non-α5 receptors; format: cell-based, rat; conditions: 100 nM effective concentration
[14] = Plasma protein and brain tissue binding; format: in vitro ADME, rat; conditions: rat
[15] = target: α2β3γ2S GABAA receptors (Rattus norvegicus, UniProt P18508+P23576); assay: 3H-flunitrazepam competition binding, α2β3γ2S
[16] = target: α3β3γ2S GABAA receptors (Rattus norvegicus, UniProt P18508+P20236); assay: 3H-flunitrazepam competition binding, α3β3γ2S
[17] = tested on: Wistar rats; assay: Elevated plus maze; format: in vivo, rat; conditions: 1 mg/kg to 10 mg/kg i.p., 5 min
[18] = target: α1β3γ2 GABAA receptors (Rattus norvegicus, UniProt P18508+P62813); assay: Two-electrode voltage clamp in Xenopus oocytes, α1β3γ2; format: cell-based; conditions: whole range of in vivo free brain concentrations obtained
[19] = only at concentrations of about 100 nM and above
[20] = rat i.p., MP-III-022 2.5 mg/kg vs SH-053-2′F-R-CH3 10 mg/kg

Structure (SMILES): C#Cc1ccc2c(c1)C(c1ccccc1F)=N[C@H](C)c1c(C(=O)NC)ncn1-2 [MP-III-022, (R)-8-Ethynyl-6-(2-fluorophenyl)-N,4-dimethyl-4H-benzo[f]imidazo[1,5-a][1,4]diazepine-3-carboxamide]
- Activity in 50 other receptor and enzyme assays [1]: negligible activity
- Estimated potentiation at α3GABAARs ([2]; after the 15 mg/kg dose): 175%
- Estimated potentiation at α3GABAARs ([2]; after the 20 mg/kg dose): 200%
- Modulatory activity at α3-containing receptors [2, 19]: weakly modulatory
- Rotarod, time remaining on the rod revolving at 15 rpm ([3]; 10 mg/kg i.p.): 180 s
- Rotarod, time remaining on the rod revolving at 15 rpm ([3]; 15 mg/kg MP-III-022 in combination with 20 mg/kg XLi-093, i.p.): 74.61 ± 34.03 s
- Rotarod, time remaining on the rod revolving at 15 rpm ([3]; 15 mg/kg i.p.): 69.09 ± 25.58 s
- Rotarod, time remaining on the rod revolving at 15 rpm ([3]; 20 mg/kg i.p.): 6.67 ± 4.81 s
- Brain AUC (0 to 180 min) relative to SH-053-2′F-R-CH3 [4, 20]: 1.75 fold
- Plasma AUC (0 to 180 min) relative to SH-053-2′F-R-CH3 [4, 20]: 2 fold
- Brain free (estimated) concentration ([4]; rat, 1 mg/kg i.p., 20 min): 6.38 ± 0.80 nmol/kg
- Brain free (estimated) concentration ([4]; rat, 2.5 mg/kg i.p., 20 min): 10.34 ± 3.33 nmol/kg
- Brain total concentration ([4]; rat, 2.5 mg/kg i.p., 20 min): 156.46 ± 50.33 nmol/kg
- Brain free (estimated) concentration ([4]; rat, 10 mg/kg i.p., 20 min): 68.12 ± 18.38 nmol/kg
- Brain total concentration ([4]; rat, 10 mg/kg i.p., 20 min): 1030.52 ± 278.03 nmol/kg
- Brain free (estimated) concentration ([4]; rat, 15 mg/kg i.p., 20 min): 317.57 ± 186.52 nmol/kg
- Brain total concentration ([4]; rat, 15 mg/kg i.p., 20 min): 4804.44 ± 2821.77 nmol/kg
- Brain free (estimated) concentration ([4]; rat, 20 mg/kg i.p., 20 min): 559.57 ± 58.58 nmol/kg
- Brain total concentration ([4]; rat, 20 mg/kg i.p., 20 min): 8465.45 ± 886.18 nmol/kg
- concentration at 20 min ([4]; rat, plasma, ip, 1 mg/kg, Plasma total concentration, 1 mg/kg i.p., 20 min): 62.4 ± 4.97 nM
- Ki [5]: 55 ± 17 nM
- Selectivity in binding to α5GABAARs compared to α1-containing GABAA receptors ([5]; ratio of Ki values): 15 fold
- Selectivity in binding to α5GABAARs compared to α2-containing GABAA receptors ([5]; ratio of Ki values): 6 fold
- Selectivity in binding to α5GABAARs compared to α3-containing GABAA receptors ([5]; ratio of Ki values): 12 fold
- Grip strength, peak force of experimenter's pull necessary to overcome the animal's grip ([6]; 1 mg/kg i.p.): 2.57 ± 0.08 kg/kg
- Grip strength, peak force of experimenter's pull necessary to overcome the animal's grip ([6]; 2.5 mg/kg i.p.): 2.41 ± 0.28 kg/kg
- Grip strength, peak force of experimenter's pull necessary to overcome the animal's grip ([6]; 10 mg/kg i.p.): 1.94 ± 0.22^b,d kg/kg
- Grip strength, peak force of experimenter's pull necessary to overcome the animal's grip ([6]; 15 mg/kg i.p.): 1.86 ± 0.16^a kg/kg
- Grip strength, peak force of experimenter's pull necessary to overcome the animal's grip ([6]; 20 mg/kg i.p.): 1.78 ± 0.16^c,d kg/kg
- Dose at which the first muscle relaxant effect was observed ([6]; i.p., grip strength): 10 mg/kg
- Locomotor activity during 20 min before amphetamine treatment [7]: did not show any effect of treatment
- Influence on amphetamine's effects (hyperlocomotion, 0.5 mg/kg amphetamine) ([7]; 60 min): lack of influence
- Estimated potentiation at α2GABAARs ([8]; after the 15 mg/kg dose): 225%
- Estimated potentiation at α2GABAARs ([8]; after the 20 mg/kg dose): 280%
- Estimated potentiation at α2GABAARs ([8]; after the dose of 10 mg/kg): 138%
- Modulatory activity at α2-containing receptors [8, 19]: weakly modulatory
- Potentiation at α5β3γ2 [9]: above 300%
- Ki [10]: 850 ± 110 nM
- PTZ test, threshold dose of PTZ required to elicit seizures ([11]; 1 mg/kg i.p.): 60.99 ± 6.11 mg/kg PTZ
- PTZ test, threshold dose of PTZ required to elicit seizures ([11]; 10 mg/kg i.p.): 50.99 ± 3.72 mg/kg PTZ
- PTZ test, effect of treatment (one-way ANOVA) ([11]; 1 and 10 mg/kg i.p.): did not show a statistically significant effect
- Total plasma concentration (in vitro metabolic stability) ([12]; 0 min): 0.5556 µM
- Total plasma concentration (in vitro metabolic stability) ([12]; 30 min): 0.5402 ± 0.0146 µM
- Total plasma concentration (in vitro metabolic stability) ([12]; 60 min): 0.5403 ± 0.0193 µM
- Total plasma concentration (in vitro metabolic stability) ([12]; 120 min): 0.5472 ± 0.0007 µM
- Total plasma concentration (in vitro metabolic stability) ([12]; 240 min): 0.5374 ± 0.0063 µM
- In vitro metabolic stability during incubation in rat plasma ([12]; rat, plasma): excellent in vitro metabolic stability
- remaining at 0 h, 0.2 μg/ml ([12]; rat, plasma): 100%
- remaining at 0.5 h, 0.2 μg/ml ([12]; rat, plasma): 97.2%
- remaining at 1 h, 0.2 μg/ml ([12]; rat, plasma): 97.2%
- remaining at 2 h, 0.2 μg/ml ([12]; rat, plasma): 98.5%
- remaining at 4 h, 0.2 μg/ml ([12]; rat, plasma): 96.7%
- Effects (potentiation) on non-α5GABAARs [13]: ≤ 150%
- fraction unbound ([14]; brain tissue): 0.0661
- fraction unbound ([14]; plasma): 0.135
- Ki [15]: 360 ± 56 nM
- Estimated free concentration as % of Ki value for α2GABAARs ([15]; after the dose of 10 mg/kg): 19%
- Ki [16]: 660 ± 170 nM
- Elevated plus maze, closed and total arm entries [17]: did not affect
- Elevated plus maze, percent of open arm entries [17]: did not affect
- Elevated plus maze, percent of open arm time [17]: did not affect
- Elevated plus maze, total distance traveled [17]: did not affect
- Modulatory actions at α1-containing GABAA receptors [18]: lacked modulatory actions
